Assay [1] has as its target T1, catalytic core of a human recombinant Glepp-1 (Homo sapiens, UniProt Q16827).
T1 construct: using the catalytic core of a human recombinant Glepp-1 as the enzyme; made in house
T1 sequence (Q16827 938-1195 limits assumed): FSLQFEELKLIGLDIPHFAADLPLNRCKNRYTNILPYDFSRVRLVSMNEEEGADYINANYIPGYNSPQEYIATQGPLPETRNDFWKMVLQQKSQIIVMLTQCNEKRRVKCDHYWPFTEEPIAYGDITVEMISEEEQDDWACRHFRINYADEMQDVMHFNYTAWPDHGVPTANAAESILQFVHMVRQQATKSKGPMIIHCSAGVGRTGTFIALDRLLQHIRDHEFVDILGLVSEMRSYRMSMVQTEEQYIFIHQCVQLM
Nature of the assay: Glepp-1 PTP enzyme assay (DiFMUP dephosphorylation). The assay is classed as biochemical. Conditions: Glepp-1, DiFMUP substrate, 30 minutes at room temperature; read-out: Inhibition (IC50). The source says: The PTP Enzyme Assay aims at determining the extent of inhibition of Glepp-1 in the presence of a test compound. The inhibition is illustrated by IC50 values which denote the concentration of test compound necessary to achieve an inhibition of 50% of Glepp-1 using the following concentration of the Glepp-1 substrate DiFMUP:
The DiFMUP assay allows to follow the dephosphorylation of DiFMUP (6,8-DiFluoro-4-MethylUmbelliferyl Phosphate)—which is the Glepp-1 substrate—mediated by Glepp-1 into its stable hydrolysis product, i.e. DiFMU (6,8-difluoro-7-hydroxy coumarin). Due to its rather low pKa and its high quantum yield, DiFMU allows to measure both acidic and alkaline phosphatase activities with a great sensitivity.
Assays were performed in a 96 well plate format, using the catalytic core of a human recombinant Glepp-1 as the enzyme and 6,8-DiFluoro-4-MethylUmbelliferyl Phosphate (DiFMUP, Molecular Probes, D-6567) as a substrate. Compounds to be tested were dissolved in 100% DMSO at a concentration of 2 mM. Subsequent dilutions of the test compounds (to yield a concentration of 100, 30, 10, 3, 1, 0.3, 0.1, 0.03, 0.01, 0.001 μM) were performed in 60% DMSO manually. 8 μl of diluted compound or vehicle (60% DMSO=control) was distributed to a black Costar 96 well plate. 42 μl of human recombinant Glepp-1 enzyme diluted in assay buffer (20 mM Tris HCl pH 7.5, 0.01% IGEPAL CA-630, 0.1 mM ethylenediaminetetracetic acid, 1 mM DL-Dithiothreitol) can be added to the dilutions of compound or vehicle (distributed to a black Costar 96 well plate), followed by 50 μl of DiFMUP diluted in the assay buffer. The reaction ran for 30 minutes at room temperature before reading the fluorescence intensity (integral or intensity) on a Perkin-Elmer Victor 2 spectrofluorimeter (excitation of 6,8-difluoro-7-hydroxy coumarin is at 355 nm, the emission at 460 nm, for 0.1 s). The percentage of inhibition is determined by measuring the relative fluorescence ion absence of a test compound (PTP inhibitor), i.e. with the solvent alone (5% DMSO). The IC50 values for inhibition were determined in triplicates.

The test system of assay [2] is THP-1 cells. Put plainly: In vitro chemotaxis, MCP-1-induced, THP1 cells (transwell). To be noted: Homo sapiens, MCP-1/CCL2 in lower chamber, 3 hours, read-out: block chemotaxis, EC50. The assay is classed as cell-based. The source says:
The compounds of Formula (I), (II), (III), (IV), (V), (VI) and (VII), may be subjected to the following assays: • (1) Glepp-1 binding assay (in vitro) • (2) In vitro assay(s): Cell functional effect. Effect on MCP-1-induced chemotaxis on THP-1 cells • (3) Lymphocyte recruitment by thioglycollate (in vivo model for inflammation) • (4) Collagen induced arthritis (CIA) in mice (in vivo model for inflammation) • (5) Contact hypersensitivity (CHS is a T cell-mediated model of skin inflammation) • (6) EAE (in vivo model for MS) • (7) Ulcerative colitis
The assay was performed as follows: After starvation of THP1 cells in serum free medium for 3 hours, 10^7 cells/ml in medium containing 0.5% BSA, and inhibitors, when indicated. 100 μl of cells were applied to the top chamber (5 μm pore size transwell plates, COSTAR, New York) and 6001 of medium containing MCP-1/CCL2, in the absence or presence of test compounds, were added to the lower chamber. After incubation at 37° C. and 5% of CO2 for 3 hours, cells that passed through the membrane were collected and counted in a Beckman Coulter® AcT 5Diff™.

Assay [3] deals with Balb/c mice. Nature of the assay: Dextran Sodium Sulfate-induced ulcerative colitis in mice. The assay is classed as in vivo. To be noted: for body weight loss: po. The protocol:
Ulcerative colitis (UC) was induced in female mice (Balb/c, 20-22 g, Elevage Janvier) by Dextran Sodium Sulfate (DSS 4%) administered in drinking water. The mice had free access to DSS during 7 days. Body weight was determined daily. The severity of the UC was assessed by a clinical score (range 0 to 4) estimating the constituency of the stool (0=firm, 1=loose, 2=diarrhea) and the presence of blood (0=no blood, 1=occult blood, 2=gross rectal bleeding). Seven days after the induction of the disease, the animals were sacrificed. The length and the weight of the colon were determined and the ratio Weight/Length/100 g body weight was calculated. The spleen weight was also determined.
Compound of the invention (10, 30 & 100 mg/kg, po) was suspended in 0.5% methocel/0.25% tween 20 and was administered twice daily at days 3, 4, 5 and 6 after the induction of the UC. Sulfasalazine (200 mg/kg, po) was used as reference compound.

Setting [4] is: 10 mg/kg po twice daily days 3-6, versus vehicle treated group.
Setting [5] is: 30 mg/kg po twice daily days 3-6, versus vehicle treated group.
Setting [6] is: 100 mg/kg po twice daily days 3-6, versus vehicle treated group.

Consider eight molecules from patent US20080207722A1, “Glepp-1 Inhibitors in the Treatment of Autoimmune and/or Inflammatory Disorders” (LABORATORIES SERONO SA, priority 2005, published 2008).

By IC50 is commonly meant the concentration that gives 50% inhibition. In the case of `N#Cc1ccc(C(=O)Nc2ccc(C(=O)N/N=C3\C(=O)Nc4ccc(I)cc43)cc2)cc1` [4-cyano-N-(4-{[(2Z)-2-(5-iodo-2-oxo-1,2-dihydro-3H-indol-3-ylidene)hydrazino]carbonyl}phenyl)benzamide], in assay [1], the IC50 was < 1000 nM.
As to `CCCCCCCCC#Cc1ccc(CN(C(=O)/C=C/c2cccc(C(F)(F)F)c2)c2ccc(O)c(C(=O)O)c2)cc1` [5-((4-dec-1-ynylbenzyl){(2E)-3-[3-(trifluoromethyl)phenyl]prop-2-enoyl}amino)-2-hydroxybenzoic acid], in assay [1], the IC50 was < 1000 nM.
A word on the EC50: it is the concentration that produces a half-maximal response. Consider `CCCCCCN(Cc1ccc(C#Cc2ccc(CCCC)cc2)cc1)c1ccc(O)c(C(=O)O)c1` [5-[{4-[(4-butylphenyl)ethynyl]benzyl}(hexyl)amino]-2-hydroxybenzoic acid], for which, in assay [2], the EC50 was in the range of 1000 to 15000 nM. For the same molecule, in assay [1], the IC50 is < 1000 nM. Further, the “colon reduction, estimated by the Weight/Length ratio” value in assay [3] (setting [4]) is listed as −22%; in assay [3] (setting [5]), −28%; in assay [3] (setting [6]) it was −35%. In addition, the splenomegaly reduced is reported as −31% in assay [3] (setting [5]) and −65% in assay [3] (setting [6]). Moreover, the body weight loss entry in assay [3] (10, 30 & 100 mg/kg) was “prevented”.
On to `CCCCCCN(Cc1ccccc1C#Cc1ccc(CCCC)cc1)C(=O)c1ccc(O)c(C(=O)O)c1` [5-{[{2-[(4-butylphenyl)ethynyl]benzyl}(hexyl)amino]carbonyl}-2-hydroxybenzoic acid], for which, in assay [3] (setting [4]), the “colon reduction, estimated by the Weight/Length ratio” value is −47% and the splenomegaly reduced is −25%. Besides, in assay [3] (setting [5]), the “colon reduction, estimated by the Weight/Length ratio” value is −50% and the splenomegaly reduced is on record as −45%. Also, the body weight loss entry in assay [3] (10 & 30 mg/kg) is listed as “prevented”.
As for `CCCCCCN(Cc1ccc(C#Cc2ccc(CCCC)cc2)cc1)C(=O)c1ccc(O)c(C(=O)O)c1` [5-{[{4-[(4-butylphenyl)ethynyl]benzyl}(hexyl)amino]carbonyl}-2-hydroxybenzoic acid], in assay [2], the EC50 lay in the range of 1000 to 15000 nM. Moreover, the IC50 in assay [1] is < 1000 nM.
`CCCCCCCCNC(=O)c1ccc(-c2nc(CN(Cc3ccc(OCC(=O)O)cc3)C(=O)CCc3ccccc3)cs2)cc1` [(4-{[[(2-{4-[(octylamino)carbonyl]phenyl}-1,3-thiazol-4-yl)methyl](3-phenylpropanoyl)amino]methyl}phenoxy)acetic acid]: the IC50 in assay [1] is < 1000 nM.
The same measure, in the same setting: the result for `O=C1NN(c2ccc(I)cc2)C(=O)/C1=C/c1ccc(Br)o1` [(4E)-4-[(5-bromo-2-furyl)methylene]-1-(4-iodophenyl)pyrazolidine-3,5-dione] reads < 1000 nM.
Consider `CCCCCCc1ccc(C#Cc2ccc(CN(Cc3ccc(C(F)(F)F)cc3)C(=O)C(=O)O)cc2)cc1` [{{4-[(4-hexylphenyl)ethynyl]benzyl}[4-(trifluoromethyl)benzyl]amino}-(oxo)acetic acid], for which the EC50 in assay [2] lay within 1000 to 15000 nM. Also, the IC50 in assay [1] is < 1000 nM.
